These results are taken from DBAASP.

The structures appear in SMILES notation. Values after ≈ are worked out from the molar mass of the structure shown.

Test systems include Pseudomonas aeruginosa; Bacillus megaterium; Salmonella typhimurium; Aeromonas hydrophila; Escherichia coli D31; Vibrio alginolyticus; Haemophilus Influenzae; Klebsiella aerogenes; Alcaligenes faecalis; Staphylococcus aureus; Enterobacter cloacae; Acinetobacter baumannii; Proteus mirabilis 090223; Escherichia coli 1342; Aeromonas sobria 090223; Klebsiella pneumoniae; Candida glabrata 0902.

Holding throughout (assay): ≥ marks a high value that may be exact or a test limit, other limits are often not marked, values filed in µg/mL are converted to µM
The subject of experiment [1] is Escherichia coli ATCC 28922.
In experiment [2] the test system is Pseudomonas aeruginosa ATCC 9027.
Experiment [3] concerns Citrobacter freundii ATCC 8090.
The subject of experiment [4] is Staphylococcus saprophyticus.
Experiment [5] has as its system Staphylococcus haemolyticus.
Experiment [6] relates to Staphylococcus epidermidis.
The test system of experiment [7] is Dermacoccus nishinomiyaensis.
For experiment [8], the system named is Micrococcus luteus IFO 12708.
Experiment [9] relates to Staphylococcus aureus ATCC 2592.
For experiment [10], the system named is Candida albicans ATCC 2002.
Experiment [11] deals with Enterococcus faecium 1299.
For experiment [12], the system named is Staphylococcus aureus 1349.
The subject of experiment [13] is Staphylococcus aureus 090223.
Experiment [14] relates to Nocardia asteroides 090312.
Experiment [15] deals with Escherichia coli ATCC 25922.
Experiment [16] concerns Stenotrophomonas maltophilia 090223.

On to `CC(C)C[C@H](NC(=O)[C@H](CC(C)C)NC(=O)CNC(=O)CNC(=O)CNC(=O)CNC(=O)CNC(=O)CNC(=O)CNC(=O)CNC(=O)CNC(=O)[C@H](CC(C)C)NC(=O)[C@H](CC(C)C)NC(=O)[C@@H]1CCCN1C(=O)CNC(=O)[C@H](CC(C)C)NC(=O)[C@H](CC(C)C)NC(=O)CNC(=O)CNC(=O)[C@H](CC(C)C)NC(=O)[C@H](CC(C)C)NC(=O)CN)C(=O)O` [GLLGGLLGPLLGGGGGGGGGLL], for which the MIC in experiment [1] is at least 50 µM; in experiment [2] it was 8 µM (≈ 14.1 µg/mL); in experiment [3], at least 75 µM.
As for `CC(C)C[C@H](NC(=O)[C@H](Cc1c[nH]c2ccccc12)NC(=O)[C@H](C)NC(=O)CNC(=O)[C@@H](N)CC(C)C)C(=O)N[C@@H](C)C(=O)NCC(=O)N[C@@H](CCCCN)C(=O)N[C@H](C(=O)N[C@@H](C)C(=O)NCC(=O)N[C@H](C(=O)N[C@H](C(=O)N[C@@H](C)C(=O)N[C@H](C(=O)N[C@@H](Cc1ccc(O)cc1)C(=O)N[C@@H](C)C(=O)N[C@@H](Cc1c[nH]c2ccccc12)C(=O)N[C@@H](CC(N)=O)C(=O)N[C@@H](CCCN=C(N)N)C(=O)N[C@@H](Cc1ccc(O)cc1)C(=O)N[C@H](C(N)=O)C(C)C)[C@@H](C)O)C(C)C)[C@@H](C)O)C(C)C` [LGAWLAGKVAGTVATYAWNRYV], the MIC was over 25 µM against Pseudomonas aeruginosa; 25 µM (≈ 59.2 µg/mL) against Bacillus megaterium; 4.24 µM (≈ 10 µg/mL) in experiment [4]; 4.24 µM (≈ 10 µg/mL) in experiment [5]; 25 µM (≈ 59.2 µg/mL) with Salmonella typhimurium; 25 µM (≈ 59.2 µg/mL) in the experiment with Aeromonas hydrophila. The MIC worked out at 4.24 µM (≈ 10 µg/mL) in [6]; 0.566 µM (≈ 1.34 µg/mL) in experiment [7]; 25 µM (≈ 59.2 µg/mL) in the experiment with Escherichia coli D31; 1.13 µM (≈ 2.68 µg/mL) against Vibrio alginolyticus; 25 µM (≈ 59.2 µg/mL) in the experiment with Haemophilus Influenzae; 25 µM (≈ 59.2 µg/mL) in the experiment on Klebsiella aerogenes. In addition, the MIC against Alcaligenes faecalis stood at 25 µM (≈ 59.2 µg/mL); in the experiment on Staphylococcus aureus it was 4.24 µM (≈ 10 µg/mL); in the experiment with Enterobacter cloacae, 25 µM (≈ 59.2 µg/mL); in experiment [8], 0.566 µM (≈ 1.34 µg/mL); against Acinetobacter baumannii, 25 µM (≈ 59.2 µg/mL).
`CC[C@H](C)[C@@H]1NC(=O)[C@H](CC(C)C)NC(=O)[C@@H](NC(=O)[C@H](Cc2ccccc2)NC(=O)[C@H](CC(C)C)NC(=O)[C@H](CO)NC(=O)[C@@H]2CCCN2C(=O)[C@H](CC(C)C)NC(=O)[C@H](CCCN=C(N)N)NC(=O)[C@H](CCCCN)NC(=O)[C@@H](NC(=O)[C@@H](NC(=O)[C@H](C)NC(=O)CNC(=O)[C@H](CC(C)C)NC(=O)[C@H](C)NC(=O)[C@@H](N)Cc2ccccc2)C(C)C)[C@@H](C)O)CSSC[C@@H](C(=O)O)NC(=O)[C@H](CCCCN)NC(=O)[C@H](CCCN=C(N)N)NC(=O)[C@H]([C@@H](C)O)NC1=O` [FALGAVTKRLPSLFCLITRKC]: the MIC with Proteus mirabilis 090223 amounted to 4.02 µM (≈ 9.39 µg/mL); in [9], 8.04 µM (≈ 18.8 µg/mL); in experiment [10], 0.984 µM (≈ 2.3 µg/mL); against Escherichia coli 1342 it was 2.01 µM (≈ 4.7 µg/mL); in experiment [11], 2.01 µM (≈ 4.7 µg/mL); in [12] it was 8.04 µM (≈ 18.8 µg/mL). Also, the MIC in the experiment on Aeromonas sobria 090223 was 4.02 µM (≈ 9.39 µg/mL); in experiment [13] it was 0.984 µM (≈ 2.3 µg/mL); in the experiment on Klebsiella pneumoniae, over 42.8 µM; in the experiment with Candida glabrata 0902, 16 µM (≈ 37.5 µg/mL); in [14], 8.04 µM (≈ 18.8 µg/mL); in experiment [15] it was 8.04 µM (≈ 18.8 µg/mL). The MIC against Acinetobacter baumannii is 5.69 µM (≈ 13.3 µg/mL); in experiment [16], 2.01 µM (≈ 4.7 µg/mL).
